Experimental data taken from patent US10906889B2, “Polycyclic inhibitors of cyclin-dependent kinase 7 (CDK7)” (Dana-Farber Cancer Institute, Inc., priority 2013, dated 2021).
Read-outs that look alike come from different tables or passages of the source.

Columns and labels:
Jurkat cells = assay: Cell proliferation (CellTiter-Glo, 72 hour), Jurkat; format: cell-based; details: Homo sapiens, blood cancer cell line
CDK7 = biological target: T1, CDK7 (Homo sapiens, UniProt P50613); assay: Adapta kinase assay (Life Technologies), CDK7; format: biochemical
T1 construct: purchased Life Technologies (assay service)
T1 sequence (P50613 whole entry): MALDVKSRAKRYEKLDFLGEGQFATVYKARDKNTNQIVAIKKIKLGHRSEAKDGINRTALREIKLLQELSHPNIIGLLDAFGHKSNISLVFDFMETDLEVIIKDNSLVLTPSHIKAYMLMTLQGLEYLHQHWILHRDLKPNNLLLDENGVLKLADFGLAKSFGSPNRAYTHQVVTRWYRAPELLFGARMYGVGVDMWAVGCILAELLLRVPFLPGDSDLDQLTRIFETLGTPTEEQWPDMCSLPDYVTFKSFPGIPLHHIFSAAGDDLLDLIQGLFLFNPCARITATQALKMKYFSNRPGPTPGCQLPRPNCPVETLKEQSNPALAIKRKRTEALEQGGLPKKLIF
T1 sequence (P51946 whole entry partner): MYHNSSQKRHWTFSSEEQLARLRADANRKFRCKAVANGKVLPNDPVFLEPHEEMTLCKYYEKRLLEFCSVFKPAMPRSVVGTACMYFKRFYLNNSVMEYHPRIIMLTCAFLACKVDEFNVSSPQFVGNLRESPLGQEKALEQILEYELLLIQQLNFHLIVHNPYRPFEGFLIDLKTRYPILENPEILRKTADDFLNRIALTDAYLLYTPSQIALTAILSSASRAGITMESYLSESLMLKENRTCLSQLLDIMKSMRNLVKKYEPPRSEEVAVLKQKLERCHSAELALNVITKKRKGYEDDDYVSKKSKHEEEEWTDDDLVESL
T1 sequence (P51948 whole entry partner): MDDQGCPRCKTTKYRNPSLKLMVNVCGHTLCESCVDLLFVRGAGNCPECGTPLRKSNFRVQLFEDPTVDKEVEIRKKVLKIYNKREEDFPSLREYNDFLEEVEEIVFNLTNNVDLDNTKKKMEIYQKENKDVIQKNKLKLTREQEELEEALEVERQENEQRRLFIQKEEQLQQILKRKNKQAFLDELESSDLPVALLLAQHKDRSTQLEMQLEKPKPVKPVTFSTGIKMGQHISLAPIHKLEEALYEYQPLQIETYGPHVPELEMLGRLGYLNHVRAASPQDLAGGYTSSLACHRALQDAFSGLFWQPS

[1] = Table 1C, co-factors cyclin H and MNAT1, read-out: CDK7 IC50

SMILES | IC50 (Jurkat cells) [nM] | IC50 (CDK7; [1]) [nM] | IC50 (CDK7; Table 2, co-factors cyclin H and MNAT1, read-out: CDK7 (calculated IC50)) [nM]
CN(C)C/C=C/C(=O)Nc1ccc(C(=O)NC2CC(O)CC(Nc3ncc(Cl)c(-c4c[nH]c5ccccc45)n3)C2)cc1 (racemic) [Compound 109, (+/−)-N-(-3-(5-chloro-4-(1H-indol-3-yl)pyrimidin-2-ylamino)-5-hydroxycyclohexyl)-4-((E)-4-(dimethylamino)but-2-enamido)benzamide] | < 500 | < 100 | 
CN(C)C/C=C/C(=O)Nc1ccc(C(=O)NC2CC(F)CC(Nc3ncc(Cl)c(-c4c[nH]c5ccccc45)n3)C2)cc1 (racemic) [Compound 119, (+/−)-N-(3-(5-chloro-4-(1H-indol-3-yl)pyrimidin-2-ylamino)-5-fluorocyclohexyl)-4-((E)-4-(dimethylamino)but-2-enamido)benzamide] | < 500 | < 100 | 
CN(C)C/C=C/C(=O)Nc1ccc(C(=O)NC2CC(Nc3ncc(Cl)c(-c4c[nH]c5ccccc45)n3)CC(F)(F)C2)cc1 (racemic) [Compound 122, (+/−)-N-(5-(5-chloro-4-(1H-indol-3-yl)pyrimidin-2-ylamino)-3,3-difluorocyclohexyl)-4-((E)-4-(dimethylamino)but-2-enamido)benzamide] | < 500 | < 100 | 
CN(C)C/C=C/C(=O)Nc1ccc(C(=O)NC2CCC(Nc3ncc(Cl)c(-c4c[nH]c5ccccc45)n3)CC2)cc1 (stereo not shown) [Compound 105] |  | < 100 | < 100
CN(C)C/C=C/C(=O)Nc1ccc(C(=O)N[C@H]2CC[C@H](Nc3ncc(Cl)c(-c4c[nH]c5ccccc45)n3)CC2)cc1 [Compound 106] |  | < 100 | 
CN(C)C/C=C/C(=O)Nc1ccc(C(=O)NC23CC4CC(C2)CC(Nc2ncc(Cl)c(-c5c[nH]c6ccccc56)n2)(C4)C3)cc1 [Compound 108, (E)-N-(3-(5-chloro-4-(1H-indol-3-yl)pyrimidin-2-ylamino)tricyclo[3.3.1.1^3,7]decanyl)-4-(4-(dimethylamino)but-2-enamido)benzamide] | 500 to 5000 | 100 to 1000 | 
O=C(/C=C/CN1CCOCC1)Nc1ccc(C(=O)N[C@H]2CCC[C@@H](Nc3ncc(Cl)c(-c4c[nH]c5ccccc45)n3)C2)cc1 [Compound 110, N-((1S,3R)-3-(5-chloro-4-(1H-indol-3-yl)pyrimidin-2-ylamino)cyclohexyl)-4-((E)-4-morpholinobut-2-enamido)benzamide] | < 500 | < 100 | 
CN1CCN(C/C=C/C(=O)Nc2ccc(C(=O)N[C@H]3CCC[C@@H](Nc4ncc(Cl)c(-c5c[nH]c6ccccc56)n4)C3)cc2)CC1 [Compound 111, N-((1S,3R)-3-(5-chloro-4-(1H-indol-3-yl)pyrimidin-2-ylamino)cyclohexyl)-4-((E)-4-(4-methylpiperazin-1-yl)but-2-enamido)benzamide] | < 500 | < 100 | 
C=CC(=O)Nc1ccc(C(=O)N[C@H]2CCC[C@@H](Nc3ncc(Cl)c(-c4c[nH]c5ccccc45)n3)C2)cc1 [Compound 112, 4-acrylamido-N-((1S,3R)-3-(5-chloro-4-(1H-indol-3-yl)pyrimidin-2-ylamino)cyclohexyl)benzamide] | < 500 | < 100 | 
C=C(C)C(=O)Nc1ccc(C(=O)N[C@H]2CCC[C@@H](Nc3ncc(Cl)c(-c4c[nH]c5ccccc45)n3)C2)cc1 [Compound 113, N-((1S,3R)-3-(5-chloro-4-(1H-indol-3-yl)pyrimidin-2-ylamino)cyclohexyl)-4-methacrylamidobenzamide] | 500 to 5000 | 100 to 1000 | 
CN(C)C/C=C/C(=O)Nc1ccc(NC(=O)[C@H]2CCC[C@@H](Nc3ncc(Cl)c(-c4c[nH]c5ccccc45)n3)C2)cc1 [Compound 114, (1S,3R,E)-3-(5-chloro-4-(1H-indol-3-yl)pyrimidin-2-ylamino)-N-(4-(4-(dimethylamino)but-2-enamido)phenyl)cyclohexanecarboxamide] | < 500 | < 100 | 
CN(C)C/C=C/C(=O)Nc1ccc(C(=O)N[C@H]2CCC[C@@H](Nc3ncc(C4CC4)c(-c4c[nH]c5ccccc45)n3)C2)cc1 [Compound 115, N-((1S,3R)-3-(5-cyclopropyl-4-(1H-indol-3-yl)pyrimidin-2-ylamino)cyclohexyl)-4-((E)-4-(dimethylamino)but-2-enamido)benzamide] | < 500 | < 100 | 
CN(C)C/C=C/C(=O)Nc1ccc(C(=O)N[C@H]2CCC[C@@H](Nc3ncc(Cl)c(-c4cccnc4)n3)C2)cc1 [Compound 116, N-((1S,3R)-3-(5-chloro-4-(pyridin-3-yl)pyrimidin-2-ylamino)cyclohexyl)-4-((E)-4-(dimethylamino)but-2-enamido)benzamide] | < 500 | 100 to 1000 | 
CN(C)C/C=C/C(=O)Nc1ccc(C(=O)N[C@H]2CCC[C@@H](Nc3ncc(C#N)c(-c4c[nH]c5ccccc45)n3)C2)cc1 [Compound 117, N-((1S,3R)-3-(5-cyano-4-(1H-indol-3-yl)pyrimidin-2-ylamino)cyclohexyl)-4-((E)-4-(dimethylamino)but-2-enamido)benzamide] | < 500 | < 100 | 
CC(C)=CC(=O)Nc1ccc(C(=O)N[C@H]2CCC[C@@H](Nc3ncc(Cl)c(-c4c[nH]c5ccccc45)n3)C2)cc1 [Compound 118, N-((1S,3R)-3-(5-chloro-4-(1H-indol-3-yl)pyrimidin-2-ylamino)cyclohexyl)-4-(3-methylbut-2-enamido)benzamide] | 500 to 5000 | 100 to 1000 | 
CN(C)C/C=C/C(=O)Nc1ccc(C(=O)N[C@@H]2C[C@H](F)C[C@H](Nc3ncc(Cl)c(-c4c[nH]c5ccccc45)n3)C2)cc1 [Compound 120, N-((1S,3R,5R)-3-(5-chloro-4-(1H-indol-3-yl)pyrimidin-2-ylamino)-5-fluorocyclohexyl)-4-((E)-4-(dimethylamino)but-2-enamido)benzamide] | 500 to 5000 | 100 to 1000 | 
CN(C)C/C=C/C(=O)Nc1ccc(C(=O)NC23CCCC(Nc4ncc(Cl)c(-c5c[nH]c6ccccc56)n4)(C2)C3)cc1 [Compound 121, (E)-N-(5-(5-chloro-4-(1H-indol-3-yl)pyrimidin-2-ylamino)bicyclo[3.1.1]heptan-1-yl)-4-(4-(dimethylamino)but-2-enamido)benzamide] | < 500 | < 100 | 
CN(C)C/C=C/C(=O)Nc1ccc(S(=O)(=O)N[C@H]2CCC[C@@H](Nc3ncc(Cl)c(-c4c[nH]c5ccccc45)n3)C2)cc1 [Compound 123, (E)-N-(4-(N-((1S,3R)-3-(5-chloro-4-(1H-indol-3-yl)pyrimidin-2-ylamino)cyclohexyl)sulfamoyl)phenyl)-4-(dimethylamino)but-2-enamide] | < 500 | 100 to 1000 | 
O=C(/C=C/CO)Nc1ccc(C(=O)N[C@H]2CCC[C@@H](Nc3ncc(Cl)c(-c4c[nH]c5ccccc45)n3)C2)cc1 [Compound 124, N-((1S,3R)-3-(5-chloro-4-(1H-indol-3-yl)pyrimidin-2-ylamino)cyclohexyl)-4-((E)-4-hydroxybut-2-enamido)benzamide] | < 500 | < 100 | 
CN(C)C/C=C/C(=O)Nc1ccc(C(=O)N[C@H]2CCC[C@@H](Nc3ncc(Cl)c(-c4c[nH]c5ccccc45)n3)C2)cc1F [Compound 126, N-((1S,3R)-3-(5-chloro-4-(1H-indol-3-yl)pyrimidin-2-ylamino)cyclohexyl)-4-((E)-4-(dimethylamino)but-2-enamido)-3-fluorobenzamide] | < 500 | < 100 | 
CN(C)C/C=C/C(=O)Nc1ccc(CN(C(=O)OC(C)(C)C)[C@H]2CCC[C@@H](Nc3ncc(Cl)c(-c4c[nH]c5ccccc45)n3)C2)cc1 [Compound 127, tert-butyl (1S,3R)-3-(5-chloro-4-(1H-indol-3-yl)pyrimidin-2-ylamino) cyclohexyl(4-((E)-4-(dimethylamino)but-2-enamido)benzyl)carbamate] | 500 to 5000 | 100 to 1000 | 
CN(C)C/C=C/C(=O)Nc1ccc(C(=O)N[C@H]2CCC[C@@H](Nc3nccc(-c4c[nH]c5ccccc45)n3)C2)cc1 [Compound 132, N-((1S,3R)-3-(4-(1H-indol-3-yl)pyrimidin-2-ylamino)cyclohexyl)-4-((E)-4-(dimethylamino)but-2-enamido)benzamide] |  | > 1000 | 
C=CC(=O)Nc1ccc([C@@H](N[C@H]2CCC[C@@H](Nc3ncc(Cl)c(-c4c[nH]c5ccccc45)n3)C2)C(F)(F)F)cc1 [Compound 136, N-(4-((R)-1-((1S,3R)-3-(5-chloro-4-(1H-indol-3-yl)pyrimidin-2-ylamino)cyclohexylamino)-2,2,2-trifluoroethyl)phenyl)acrylamide] |  | > 1000 | 
CN(C)C/C=C/C(=O)Nc1ccc(C(=O)N[C@H]2CCC[C@@H](Nc3ncc(Cl)c(-c4cn(C)c5ccccc45)n3)C2)cc1 [Compound 150] |  | < 100 | 
C=CC(=O)Nc1ccc(C(=O)N[C@H]2CCC[C@@H](Nc3ncc(Cl)c(-c4n[nH]c5ccccc45)n3)C2)cc1 [Compound 151, 4-acrylamido-N-((1S,3R)-3-((5-chloro-4-(1H-indazol-3-yl)pyrimidin-2-yl)amino)cyclohexyl)benzamide] |  | < 100 | 
C=CC(=O)Nc1ccc(C(=O)N[C@H]2CCC[C@@H](Nc3ncc(Cl)c(-c4c(C)[nH]c5ccccc45)n3)C2)cc1 [Compound 153, 4-acrylamido-N-((1S,3R)-3-((5-chloro-4-(2-methyl-1H-indol-3-yl)pyrimidin-2-yl)amino)cyclohexyl)benzamide] |  | < 100 | 
Cc1[nH]c2ccccc2c1-c1nc(N[C@@H]2CCC[C@H](NC(=O)c3ccc(NC(=O)/C=C/CN(C)C)cc3)C2)ncc1Cl [Compound 154, N-((1S,3R)-3-((5-chloro-4-(2-methyl-1H-indol-3-yl)pyrimidin-2-yl)amino)cyclohexyl)-4-((E)-4-(dimethylamino)but-2-enamido)benzamide] |  | < 100 | 
C=CC(=O)Nc1cccc(CO[C@H]2CC[C@H](Nc3ncc(Cl)c(-c4c[nH]c5ccccc45)n3)CC2)c1 [Compound 155, N-(3-((((1R,4R)-4-((5-chloro-4-(1H-indol-3-yl)pyrimidin-2-yl)amino)cyclohexyl)oxy)methyl)phenyl)acrylamide] |  | > 1000 | 
CON(C)C/C=C/C(=O)Nc1ccc(C(=O)N[C@H]2CCC[C@@H](Nc3ncc(Cl)c(-c4c[nH]c5ccccc45)n3)C2)cc1 [Compound 160] |  | 100 to 1000 | 
